From article PMC13450841 (PLOS Pathogens, 2026) come the findings set out here.

The target of series [1] is T1, ExoU (Pseudomonas aeruginosa, UniProt O34208). As to the kind of experiment: ExoU in vitro phospholipase assay (real-time, dose-response). In kind it is biochemical. The following applies: for Inhibition of ExoU phospholipase activity (in words): real-time phospholipase assay, Fig 2A, 2B, 2E.
For series [2], the system named is PA103-infected HCE-T cells. In words: LDH release assay in PA103-infected scratched HCE-T cells. In kind it is cell-based, human. The following applies: 2.5 µM compound, PA103 MOI 10, 4 hours, S6 Fig. An excerpt:
Percentage lysis was normalized to the maximal LDH release from the kit positive control (CyQUANT; Thermo Fisher). (TIF)

The target of series [3] is T1, ExoU. In words: nanoDSF thermal stability of ExoU. It counts as binding. Particulars: 10 µM compound, read-out: Decrease of ExoU Tm. Here is the method: Thermal stability of recombinant His₆-ExoU was assessed using a Prometheus NT.48 instrument (NanoTemper Technologies, Cambridge, UK) without extrinsic dyes, as these were not compatible with the use of PIP2. ExoU was diluted to 5 µM in 20 mM TrisHCl-HCl (pH 8.2), 100 mM NaCl, and 10% (v/v) glycerol. To evaluate ligand effects, four samples were prepared: ExoU alone, ExoU with 5 µM PIP2, ExoU with 10 µM inhibitor, and ExoU with both 5 µM PIP2 and 10 µM indicated inhibitor, each maintaining 1% (v/v) DMSO. Ten microliters of each mixture were loaded into highsensitivity-sensitivity nanoDSF glass capillaries and subjected to a thermal ramp from 25 °C to 95 °C at 1 °C/min. Intrinsic tryptophan fluorescence emission at 330 nm and 350 nm was recorded continuously, and the ratio F₃₅₀/F₃₃₀ was plotted against temperature. Melting temperatures (Tₘ) were determined from the inflection point of the first derivative of the fluorescence ratio using the manufacturer’s analysis software. All conditions were measured in triplicate. Changes in melting temperature (Δ Tₘ) compared to DMSO, or DMSO PIP2 controls were plotted using GraphPad.
Supplementary file ppat.1014474.s008.tif: S7 Fig Nano differential scanning fluorimetry (nanoDSF) analysis of ExoU thermal stability in the presence of compounds. Raw melt curves of recombinant ExoU are shown in the absence (left) and presence (right) of PIP2 (5 µM) from three independent (A-C) experiments. Compounds were tested at 10 µM. Intrinsic tryptophan fluorescence emission was continuously monitored at 330 nm and 350 nm as the temperature increased, and the fluorescence ratio (F₃₅₀/F₃₃₀) was plotted against temperature. Melting temperatures (Tₘ) were calculated from the average inflection point of the first derivative of the fluorescence ratio using the manufacturer’s analysis software. (TIF)
A general note: In DSF a fluorescence change marks the thermal transition of the protein.

A further series deals with P. aeruginosa PA103. The following applies: read-out: IC50 of bacterial growth.
Series [4] relates to primary human corneal epithelial cells.
A further series is described as follows: in vitro. Particulars: human, primary human corneal (limbal) epithelial cells.
Where [5] appears, read: Fig 1B dose-response, PIP2 and ubiquitin present, read-out: IC50 for ExoU inhibition in vitro.

Read-outs that look alike come from different tables or passages of the source. Where a SMILES comes first, the peptide text is derived from it.

T1 sequence (O34208 1-687): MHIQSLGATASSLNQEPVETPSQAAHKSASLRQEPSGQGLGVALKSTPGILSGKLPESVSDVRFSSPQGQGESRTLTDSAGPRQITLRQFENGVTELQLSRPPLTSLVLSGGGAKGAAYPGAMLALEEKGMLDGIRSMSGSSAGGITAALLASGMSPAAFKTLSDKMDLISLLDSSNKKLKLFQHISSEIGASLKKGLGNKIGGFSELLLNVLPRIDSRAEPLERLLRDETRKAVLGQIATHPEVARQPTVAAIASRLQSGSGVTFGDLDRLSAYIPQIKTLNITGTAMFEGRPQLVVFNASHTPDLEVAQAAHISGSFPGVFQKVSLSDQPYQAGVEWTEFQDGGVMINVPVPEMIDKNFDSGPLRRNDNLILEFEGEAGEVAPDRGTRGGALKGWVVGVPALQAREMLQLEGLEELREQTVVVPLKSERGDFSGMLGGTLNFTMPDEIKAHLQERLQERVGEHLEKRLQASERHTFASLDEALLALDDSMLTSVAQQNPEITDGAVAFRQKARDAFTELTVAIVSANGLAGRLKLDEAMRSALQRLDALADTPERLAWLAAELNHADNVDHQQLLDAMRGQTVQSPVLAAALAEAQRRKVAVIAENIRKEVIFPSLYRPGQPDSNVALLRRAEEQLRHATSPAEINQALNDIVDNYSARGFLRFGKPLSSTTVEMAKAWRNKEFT

As for `CC[C@H](C)CCCCC(=O)O` [(S)-6-methyloctanoic acid], the “Inhibition of ExoU phospholipase activity (in words)” value (“Inhibition … (in words)” for short) at ExoU [1] was “failed to inhibit ExoU”.
On to subcitrate, for which the “IC50 of bismuth-based ExoU inhibitors and subcitrate alone” value at ExoU [1] (Fig 2C dose-response phospholipase assays) is “No inhibition”.
On to `On1ccccc1=S.On1ccccc1=S.[Cu]` [copper pyrithione], for which the “Inhibition … (in words)” value on ExoU [1] is on record as “Neither copper pyrithione, nor pyrithione inhibited ExoU”.
Regarding `[Cl][Bi]([Cl])[Cl]` [Bismuth chloride, bismuth chloride], the IC50 at ExoU [1] (Fig 2C dose-response phospholipase assays, read-out: IC50 of bismuth-based ExoU inhibitors and subcitrate alone) came out at 9.2 µM.
As to `[H]/N=C(\N/C(=N/[H])NCCCCCCNC(=N)NC(=N)Nc1ccc(Cl)cc1)Nc1ccc(Cl)cc1` [chlorhexidine], the IC50 on ExoU [1] (setting [5]) is 18.5 ± 3.3 µM.
For the molecule `O=S(=O)([O-])[O-].[Zn+2]` [zinc sulphate], the “Inhibition … (in words)” value on ExoU [1] is “inhibited ExoU phospholipase activity”. The “Mean lysis (LDH release)” value in series [2] turned out to be 89%.
For the molecule `[O-][n+]1ccccc1S` [pyrithione], at ExoU [1], the “Inhibition … (in words)” value is given as “Neither copper pyrithione, nor pyrithione inhibited ExoU”.
On to `CCN(CC)CCN(Cc1ccc(-c2ccc(C(F)(F)F)cc2)cc1)C(=O)Cn1c(SCc2ccc(F)cc2)nc(=O)c2c1CCC2` [darapladib], for which, on ExoU [1] (10 µM compound, S4 Fig), the “ExoU activity with arachidonoyl thio-PC substrate” value is reported as “did not inhibit ExoU activity”.
For `CC(=O)Oc1ccc(C(=C2CCCCC2)c2ccc(OC(C)=O)cc2)cc1` [cyclofenil], the IC50 on ExoU [1] (setting [5]) stood at 20.2 ± 2.8 µM.
Consider lauric acid–Asp–Thr–Dab [Poltide 2], for which, on ExoU [1] (Fig 2E), the “IC50 for ExoU inhibition, polymyxin B and poltide analogues” value is given as “no effect on ExoU activity”.
Consider `COc1cc2c(cc1OC)[C@@H](Cc1cc(OC)c(OC)c(OC)c1)[N+](C)(CCCOC(=O)CC/C=C/CCC(=O)OCCC[N+]1(C)CCc3cc(OC)c(OC)cc3[C@H]1Cc1cc(OC)c(OC)c(OC)c1)CC2` (stereo partly drawn) [mivacurium chloride], for which, on ExoU [1] (setting [5]), the IC50 was determined as 6 ± 1.8 µM.
Turning to `CC[C@H](C)CCCCC(=O)N[C@@H](CCN)C(=O)N[C@H](C(=O)N[C@@H](CCN)C(=O)N[C@H]1CCNC(=O)[C@H]([C@@H](C)O)NC(=O)[C@H](CCN)NC(=O)[C@H](CCN)NC(=O)[C@H](CC(C)C)NC(=O)[C@@H](Cc2ccccc2)NC(=O)[C@H](CCN)NC1=O)[C@@H](C)O` [Pol, polymyxin B] (HELM PEPTIDE1{[CC[C@H](C)CCCCC(=O)[*:2]].[Dab].T.[Dab].[Dab].[Dab].[dF].L.[Dab].[Dab].T}$PEPTIDE1,PEPTIDE1,5:R3-11:R2$$$V2.0), the half-maximal inhibitory concentration (IC50) at ExoU [1] (setting [5]) turned out to be 13.1 ± 1.7 µM; on ExoU [1] (Fig 3C, three-parameter fit, read-out: IC50 for ExoU inhibition, individual inhibitors or equimolar combinations), 11.6 ± 0.9 µM; against ExoU [1] (IC50 for ExoU inhibition, polymyxin B and poltide analogues, Fig 2E) it was 13 µM; with P. aeruginosa PA103 (in DMEM/F-12 supplemented with 10% (v/v) FBS) it was 2.1 µM; with P. aeruginosa PA103 (in LB), 0.75 µM. In addition, the ΔTm at 10 µM was -3.8 °C at ExoU [3] (absence of PIP2) and -6.2 °C at ExoU [3] (with 5 µM PIP2). The “LD50 (LDH release)” value in series [4] was 42.5 ± 10.6 µM. Moreover, half-maximal cytotoxicity in “in vitro” (CC50 at 48 h) was put at 43 µM.

What is called IC50 is the midpoint of a concentration-inhibition curve. The CC50 is the concentration giving 50% cytotoxicity.
